Measurements published in US4988703A, “Carbocyclic nucleoside analogs with antiviral activity” (Abbott Laboratories, priority 1989, dated 1991).
Values after ≈ are worked out from the molar mass of the structure shown. Where two headings read alike, the source gives them in different places.

Experiments:
[1] = system: Herpes simplex type 2 (HSV-2) strain MS
[2] = system: Herpes simplex type 1 (HSV-1) strain E-377; test: microbe, parasite or virus in culture; conditions: Human alphaherpesvirus 1, Vero, read-out: ID50: minimum drug concentration that inhibited the CPE by 50%
[3] = system: Herpes simplex type 2 (HSV-2) strain MS; test: microbe, parasite or virus in culture; conditions: Human alphaherpesvirus 2, Vero, read-out: ID50: minimum drug concentration that inhibited the CPE by 50%
[4] = system: African green monkey kidney (Vero); test: Drug cytotoxicity in Vero host cells (cytotoxicity controls of the CPE-inhibition assay); conditions: Vero, HSV-2 (MS) experiment
Method: (§1) The challenge viruses were propagated and assayed in cells that were pregrown as monolayer cultures in plastic tissue culture flasks and 96-well plates, using cell culture media appropriate for the host cell cultures. The following viruses and host cell cultures were employed:
(§2) On the day of use, a weighed sample of each compound to be evaluated was dissolved and diluted in serial 10^0.5 dilutions in the culture medium appropriate for each virus-host cell system.
(§3) Mammalian cells were pregrown as monolayers in wells of COSTAR 96-well tissue culture plates using suitable cell culture media. Stock viruses were pretitered according to the method of Reed and Muench (Amer. J. Hyg. 27:493-497, 1938) and diluted in cell culture medium to yield 32 CCID50 (cell culture infectious dose, 50%) units per 0.1 ml. Antiviral assays were designed to test seven concentrations of each compound, from cytotoxic to noncytotoxic levels, in triplicate against each of the challenge viruses in microtiter plate wells containing suitable cell monolayers. To each of the replicate cell cultures were added 0.1 ml of the test drug solution and 0.1 ml of virus suspension. Cell controls containing medium alone, virus controls containing medium and virus, and drug cytotoxicity controls containing medium and each drug concentration were run simultaneously with the test samples assayed in each experiment. […] The cell monolayers were examined microscopically for virus-induced CPE and for drug cytotoxicity.
(§4) Antiviral activity was determined by calculating the degree of inhibition of virus-induced CPE in drug-treated, virus-infected cell cultures by means of a virus rating (VR). The VR is a standard weighted measurement of antiviral activity taking into account both the degree of CPE inhibition and drug cytotoxicity, and is determined by a modification of the method of Ehrlich et al. (Ann. N.Y. Acad. Sci. 130 : 5-16, 1965) as described below. CPE was graded for each individual culture in each microtiter plate well according to the following scale:
(§5) ^3 MTC=The minimum drug concentration (ug/ml) causing any cytotoxicity.

[5] = as above; conditions: african green monkey, vero cells
Method: as §1, §2, §3, §4, §5

[6] = system: Herpes simplex type 1 (HSV-1) strain E-377
in vitro = conditions: dog, mdck
Method: as §1, §2
Mammalian cells were pregrown as monolayers in wells of COSTAR 96-well tissue culture plates using suitable cell culture media. Stock viruses were pretitered according to the method of Reed and Muench (Amer. J. Hyg. 27:493-497, 1938) and diluted in cell culture medium to yield 32 CCID50 (cell culture infectious dose, 50%) units per 0.1 ml. Antiviral assays were designed to test seven concentrations of each compound, from cytotoxic to noncytotoxic levels, in triplicate against each of the challenge viruses in microtiter plate wells containing suitable cell monolayers. To each of the replicate cell cultures were added 0.1 ml of the test drug solution and 0.1 ml of virus suspension. […]
Antiviral activity was determined by calculating the degree of inhibition of virus-induced CPE in drug-treated, virus-infected cell cultures by means of a virus rating (VR). […]

[7] = system: Human influenza type A (IV-A) strain PR/8/34 (HINI); test: CPE-inhibition assay against human influenza virus type A in MDCK cells; type: cell-based

Compound | TI (Therapeutic Index): minimum cytotoxic drug concentration divided by ID50 ([1]; HSV-2 MS, Vero) | VR (Virus Rating) ([1]; HSV-2 MS, Vero, VR 1.0 definite activity, 0.5-0.9 marginal to moderate, <0.5 usually none) | IC50 [2] | IC50 [3] | MTC: minimum drug concentration causing any cytotoxicity [4] | MCC [5] | TI (Therapeutic Index): minimum cytotoxic drug concentration divided by ID50 ([6]; HSV-1 E-377, Vero) | VR (Virus Rating) ([6]; HSV-1 E-377, Vero, VR 1.0 definite activity, 0.5-0.9 marginal to moderate, <0.5 usually none) | MCC (in vitro) | VR (Virus Rating) [1] | VR (Virus Rating) [7] | VR (Virus Rating) [6]
Nc1nc2c(ncn2C2CC2CCO)c(=O)[nH]1 (stereo not drawn) [Example 2E, 9-[2-(2'-hydroxyethyl)cyclopropyl]guanine] | > 4.1 | 2.3 | 31.6 µg/mL (≈ 134 µM) | 77.7 µg/mL (≈ 330 µM) | > 320 µg/mL | > 320 µg/mL | > 10.4 | 3.7 |  |  |  | 
Nc1nc2c(ncn2C2CC2C(O)CO)c(=O)[nH]1 (stereo not drawn) [Example 3G] | 2.0 |  | 101 µg/mL (≈ 402 µM) | 159 µg/mL (≈ 633 µM) | > 320 µg/mL | > 320 µg/mL | 3.2 |  | > 320 µg/mL | 1.3 | 0.6 | 1.8
